For 29 compounds, IC50 results are on record in US9493412B2, “Pyrrolinone carboxamide compounds useful as endothelial lipase inhibitors” (BRISTOL-MYERS SQUIBB COMPANY, priority 2011, dated 2016).

In the assay the target is endothelial lipase (EL) (Homo sapiens (Human), UniProt Q9Y5X9). Description: Endothelial lipase (EL) enzymatic assay with fluorescent substrate A10070 in DMPG vesicles. Format: biochemical. The settings on record: conditioned media from HT-1080 cells overexpressing endogenous EL; 20 min preincubation at 37° C.; read-out: HLE_EL_CRC IC50. As to the method: Endothelial lipase activity was measured using a fluorescent substrate, A10070, (Invitrogen, CA) doped into an artificial vesicle containing DMPG (Avanti Polar Lipids) as the excipient. Vesicles were prepared by combining 285 uL of 1 mM
Sequence of endothelial lipase (EL) (Q9Y5X9 21-500): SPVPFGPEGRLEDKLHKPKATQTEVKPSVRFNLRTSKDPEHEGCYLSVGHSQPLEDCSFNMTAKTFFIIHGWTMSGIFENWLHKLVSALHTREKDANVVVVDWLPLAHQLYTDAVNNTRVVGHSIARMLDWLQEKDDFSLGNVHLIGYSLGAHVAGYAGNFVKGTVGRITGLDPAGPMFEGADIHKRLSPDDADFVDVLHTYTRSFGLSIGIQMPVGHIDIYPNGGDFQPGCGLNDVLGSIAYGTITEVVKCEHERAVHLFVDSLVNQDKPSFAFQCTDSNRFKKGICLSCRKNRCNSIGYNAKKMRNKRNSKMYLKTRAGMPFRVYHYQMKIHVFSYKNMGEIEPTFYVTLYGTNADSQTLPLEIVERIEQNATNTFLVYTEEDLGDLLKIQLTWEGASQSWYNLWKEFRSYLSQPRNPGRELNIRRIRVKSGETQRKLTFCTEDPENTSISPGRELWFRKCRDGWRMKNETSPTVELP
DMPG in a 1:1 mixture of MeOH and CHCl3 with 15 uL of 1 mM A10070 in a 1:1 mixture of MeOH and CHCl3. The mixture was dried under nitrogen and resuspended in 150 uL of 50 mM HEPES pH 8.0 buffer containing 100 mM NaCl and 0.2 mM EDTA. The sample was allowed to sit at rt for 15 min and then was sonicated 3×4 mins on ice with a Branson Sonicator using duty cycle 1. This preparation provides vesicles with a mole fraction of 0.05 for the FRET substrate.
The enzymatic assay was measured using white, opaque 96-well half area plates. Each well contained 60 uL of assay buffer (50 mM HEPES pH 8.0, 50 mM NaCl and 1 mM CaCl2) and 2 ul of a DMSO solution containing compound of interest. Conditioned media obtained from HT-1080 cells, which were transformed by RAGE technology (Athersys) to overexpress endogenous EL, was added and the reaction was allowed to incubate for 20 min at 37° C. with gentle agitation. The reaction was started by the addition of 20 uL of a 1:4 dilution of vesicles. The final total reaction volume was 100 uL. The reaction rates were measured on a Gemini plate reader with an excitation wavelength of 488 nm and a emission of 530 nm. Readings were taken every 20 seconds for 10 min with agitation between each reading. The slope of the linear portion of the readout was used to calculate the rate of the reaction.
The exemplified examples disclosed in the present invention were tested in the EL assay described above and found having EL inhibitory activity.
As usually defined, the IC50 is the concentration needed to halve the response being measured. With `CN1CC(C(=O)NC2CC[C@H](c3ccccc3)C2)=C(O)C1=O` (single isomer, unassigned; isomer a) [Example 173], the IC50 was 8470 nM.
With `CN1CC(C(=O)NCc2ccc(Oc3ccc(F)cc3)cc2)=C(O)C1=O` [Example 8, N-(4-(4-fluorophenoxy)benzyl)-4-hydroxy-1-methyl-5-oxo-2,5-dihydro-1H-pyrrole-3-carboxamide] the figure was 49.5 nM.
`CN1CC(C(=O)NCc2ccccc2-c2ccccc2)=C(O)C1=O` [Example 18, N-(biphenyl-2-ylmethyl)-4-hydroxy-1-methyl-5-oxo-2,5-dihydro-1H-pyrrole-3-carboxamide]: the IC50 was determined as 27 nM.
Turning to `CC(C)CN1CC(C(=O)NCCCCc2nc(-c3ccc(Cl)c(Cl)c3)no2)=C(O)C1=O` [Example 21, N-(4-(3-(3,4-dichlorophenyl)-1,2,4-oxadiazol-5-yl)butyl)-4-hydroxy-1-isobutyl-5-oxo-2,5-dihydro-1H-pyrrole-3-carboxamide], the IC50 turned out to be 15.4 nM.
As to `CN1CC(C(=O)NCc2ccc(OC3CCOCC3)cc2)=C(O)C1=O` [Example 22, 4-hydroxy-1-methyl-5-oxo-N-(4-(tetrahydro-2H-pyran-4-yloxy)benzyl)-2,5-dihydro-1H-pyrrole-3-carboxamide], the IC50 was 270 nM.
With `CN1CC(C(=O)NCc2ccc(C(=O)N3CCCCC3)cc2)=C(O)C1=O` [Example 24, 4-hydroxy-1-methyl-5-oxo-N-(4-(piperidine-1-carbonyl)benzyl)-2,5-dihydro-1H-pyrrole-3-carboxamide] the figure was 9300 nM; with `Cc1ccc(Oc2ccc(CNC(=O)C3=C(O)C(=O)N(C)C3)cc2)c(C)c1` [Example 34, N-(4-(2,4-dimethylphenoxy)benzyl)-4-hydroxy-1-methyl-5-oxo-2,5-dihydro-1H-pyrrole-3-carboxamide], 32.1 nM; with `CN1CC(C(=O)NCc2cccc(-c3ccccc3Cl)c2)=C(O)C1=O` [Example 62, N-((2′-chlorobiphenyl-3-yl)methyl)-4-hydroxy-1-methyl-5-oxo-2,5-dihydro-1H-pyrrole-3-carboxamide], 246 nM.
With `CN1CC(C(=O)NCc2cccc(-c3ccccc3F)c2)=C(O)C1=O` [Example 63, N-((2′-fluorobiphenyl-3-yl)methyl)-4-hydroxy-1-methyl-5-oxo-2,5-dihydro-1H-pyrrole-3-carboxamide] the figure was 250 nM; with `CC(=O)c1cccc(-c2cccc(CNC(=O)C3=C(O)C(=O)N(C)C3)c2)c1` [Example 66, N-((3′-acetylbiphenyl-3-yl)methyl)-4-hydroxy-1-methyl-5-oxo-2,5-dihydro-1H-pyrrole-3-carboxamide], 285 nM.
With `CN1CC(C(=O)NCc2cccc(-c3ccc(CNS(C)(=O)=O)cc3)c2)=C(O)C1=O` [Example 83, 4-hydroxy-1-methyl-N-((4′-(methylsulfonamidomethyl)biphenyl-3-yl)methyl)-5-oxo-2,5-dihydro-1H-pyrrole-3-carboxamide] the figure was 257 nM; with `CC(=O)NCc1ccc(-c2cccc(CNC(=O)C3=C(O)C(=O)N(C)C3)c2)cc1` [Example 85, N-((4′-(acetamidomethyl)biphenyl-3-yl)methyl)-4-hydroxy-1-methyl-5-oxo-2,5-dihydro-1H-pyrrole-3-carboxamide], 241 nM.
For the compound `C[C@@H](NC(=O)C1=C(O)C(=O)N(C)C1)c1cccc(-c2cccc(C(F)(F)F)c2)c1` [Example 91, (R)-4-hydroxy-1-methyl-5-oxo-N-(1-(3′-(trifluoromethyl)biphenyl-3-yl)ethyl)-2,5-dihydro-1H-pyrrole-3-carboxamide], the IC50 stood at 271 nM.
`C[C@@H](NC(=O)C1=C(O)C(=O)N(C)C1)c1cccc(-c2cccc(F)c2)c1` [Example 92, (R)-N-(1-(3′-fluorobiphenyl-3-yl)ethyl)-4-hydroxy-1-methyl-5-oxo-2,5-dihydro-1H-pyrrole-3-carboxamide]: the 50% inhibitory concentration (IC50) was 246 nM.
The result for `C[C@@H](NC(=O)C1=C(O)C(=O)N(C)C1)c1cccc(-c2cccc(C#N)c2)c1` [Example 96, (R)-N-(1-(3′-cyanobiphenyl-3-yl)ethyl)-4-hydroxy-1-methyl-5-oxo-2,5-dihydro-1H-pyrrole-3-carboxamide] reads 277 nM; that for `C[C@@H](NC(=O)C1=C(O)C(=O)N(C)C1)c1cccc(-c2cccc(C(N)=O)c2)c1` [Example 103, (R)-N-(1-(3′-carbamoylbiphenyl-3-yl)ethyl)-4-hydroxy-1-methyl-5-oxo-2,5-dihydro-1H-pyrrole-3-carboxamide], 49.6 nM.
With `CC(=O)NCc1ccc(-c2cccc([C@@H](C)NC(=O)C3=C(O)C(=O)N(C)C3)c2)cc1` [Example 104, (R)-N-(1-(4′-(acetamidomethyl)biphenyl-3-yl)ethyl)-4-hydroxy-1-methyl-5-oxo-2,5-dihydro-1H-pyrrole-3-carboxamide], the IC50 was found to be 254 nM.
With `CCN1CC(C(=O)N[C@@H]2CCC(c3ccccc3)c3ccccc32)=C(O)C1=O` (stereo partly drawn) [Example 146, 1-ethyl-4-hydroxy-5-oxo-N-((1R)-4-phenyl-1,2,3,4-tetrahydronaphthalen-1-yl)-2,5-dihydro-1H-pyrrole-3-carboxamide] the figure was 50 nM; with `CN1CC(C(=O)NCC2CCN(C(=O)c3ccc(Cl)c(Cl)c3)CC2)=C(O)C1=O` [Example 157, N-((1-(3,4-dichlorobenzoyl)piperidin-4-yl)methyl)-4-hydroxy-1-methyl-5-oxo-2,5-dihydro-1H-pyrrole-3-carboxamide], 4840 nM; with `O=C(N[C@H]1CC[C@@H](c2ccccc2)CC1)C1=C(O)C(=O)N(CCCC(F)(F)F)C1` [Example 168, 4-hydroxy-5-oxo-N-(cis-4-phenylcyclohexyl)-1-(4,4,4-trifluorobutyl)-2,5-dihydro-1H-pyrrole-3-carboxamide], 252 nM.
Consider `O=C(N[C@H]1CC[C@@H](c2ccccc2)CC1)C1=C(O)C(=O)N(CC(F)(F)C(F)(F)F)C1` [Example 169, 4-hydroxy-5-oxo-1-(2,2,3,3,3-pentafluoropropyl)-N-(cis-4-phenylcyclohexyl)-2,5-dihydro-1H-pyrrole-3-carboxamide], for which the IC50 amounted to 7170 nM.
As for `O=C(N[C@H]1CC[C@@H](c2ccccc2)CC1)C1=C(O)C(=O)N(CCS(=O)(=O)c2ccccc2)C1` [Example 172, 4-hydroxy-5-oxo-N-(cis-4-phenylcyclohexyl)-1-(2-(phenylsulfonyl)ethyl)-2,5-dihydro-1H-pyrrole-3-carboxamide], the IC50 is 4720 nM.
The result for `CN(CCN1CC(C(=O)N[C@H]2CC[C@@H](c3ccccc3)CC2)=C(O)C1=O)C(=O)/C=C/C(F)(F)F` [Example 178, 4-hydroxy-5-oxo-N-(cis-4-phenylcyclohexyl)-1-(2-((E)-4,4,4-trifluoro-N-methylbut-2-enamido)ethyl)-2,5-dihydro-1H-pyrrole-3-carboxamide] reads 9920 nM; that for `O=C(N[C@H]1CC[C@@H](c2ccccc2)CC1)C1=C(O)C(=O)N(C2CCN(c3ccc(F)cc3)CC2)C1` [Example 179, 1-(1-(4-fluorophenyl)piperidin-4-yl)-4-hydroxy-5-oxo-N-(cis-4-phenylcyclohexyl)-2,5-dihydro-1H-pyrrole-3-carboxamide], 3090 nM.
The result for `CNCCCN1CC(C(=O)N[C@H]2CC[C@@H](c3ccccc3)CC2)=C(O)C1=O` [Example 181, 4-hydroxy-1-(3-(methylamino)propyl)-5-oxo-N-(cis-4-phenylcyclohexyl)-2,5-dihydro-1H-pyrrole-3-carboxamide] reads 5730 nM.
With `CN1CC(N2CC(C(=O)N[C@H]3CC[C@@H](c4ccccc4)CC3)=C(O)C2=O)CC1=O` (stereo partly drawn) [Example 196, 4-hydroxy-1-(1-methyl-5-oxopyrrolidin-3-yl)-5-oxo-N-(cis-4-phenylcyclohexyl)-2,5-dihydro-1H-pyrrole-3-carboxamide], the half-inhibitory concentration (IC50) worked out at 8250 nM.
The result for `CN(CCN1CC(C(=O)N[C@H]2CC[C@@H](c3ccccc3)CC2)=C(O)C1=O)c1ccccc1` [Example 210, 4-hydroxy-1-(2-(methyl(phenyl)amino)ethyl)-5-oxo-N-(cis-4-phenylcyclohexyl)-2,5-dihydro-1H-pyrrole-3-carboxamide] reads 6570 nM.
The result for `CCN1CC(C(=O)NCC2CCc3cnc(-c4ccc(Cl)c(Cl)c4)n3C2)=C(O)C1=O` (centres unmarked) [Example 214, N-((3-(3,4-Dichlorophenyl)-5,6,7,8-tetrahydroimidazo[1,5-a]pyridin-6-yl)methyl)-1-ethyl-4-hydroxy-5-oxo-2,5-dihydro-1H-pyrrole-3-carboxamide] reads 460 nM; that for `CCN1CC(C(=O)N[C@@H]2CCc3cc(-c4ccccc4)ccc32)=C(O)C1=O` [Example 218, (R)-1-ethyl-4-hydroxy-5-oxo-N-(5-phenyl-2,3-dihydro-1H-inden-1-yl)-2,5-dihydro-1H-pyrrole-3-carboxamide], 43.5 nM.
